Data as given in publication PMC6478789, “A chemical toolbox for the study of bromodomains and epigenetic signaling” (Nature Communications, 2019).
Substitutions are numbered along the chain they refer to. Read-outs that look alike come from different tables or passages of the source. One block for each compound: values may come before it.

What was measured:
Test in all cases: BROMOscan ligand-binding assay
SMARCA4 = SMARCA4 (Homo sapiens, UniProt P51532); settings: SMARCA4
From the text: (§1) BROMOscan is a binding assay based on the well-known KINOMEscan technology. This assay measures the binding of a DNA-tagged bromodomain to an immobilized BRD ligand. If an inhibitor is present, it will compete with the bromodomain binding to the immobilized ligand, resulting in reduction of a quantitative PCR (qPCR) signal in a dose-dependent manner.

BRD4(2) = BRD4(2) (Homo sapiens, UniProt O60885)
From the text: as §1

BAZ2B = biological target: T1, BAZ2B (Homo sapiens, UniProt Q9UIF8)
T1 sequence (Q9UIF8 2060-2164 limits assumed): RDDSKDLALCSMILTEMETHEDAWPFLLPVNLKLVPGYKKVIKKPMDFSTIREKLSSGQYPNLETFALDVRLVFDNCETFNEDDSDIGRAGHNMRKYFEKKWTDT
From the text: as §1

TRIM24(PHD,BRD) = biological target: T2, TRIM24(PHD,BRD) (Homo sapiens, UniProt O15164)
T2 sequence (O15164 824-1006 limits assumed): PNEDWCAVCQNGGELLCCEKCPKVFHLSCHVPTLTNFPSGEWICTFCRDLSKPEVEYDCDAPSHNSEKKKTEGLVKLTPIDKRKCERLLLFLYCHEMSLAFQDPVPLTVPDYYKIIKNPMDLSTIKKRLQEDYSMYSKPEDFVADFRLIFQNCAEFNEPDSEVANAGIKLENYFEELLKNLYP
From the text: as §1

TAF1L(2) = biological target: T3, TAF1L(2) (Homo sapiens, UniProt Q8IZX4)
T3 sequence (Q8IZX4 1517-1626 limits assumed): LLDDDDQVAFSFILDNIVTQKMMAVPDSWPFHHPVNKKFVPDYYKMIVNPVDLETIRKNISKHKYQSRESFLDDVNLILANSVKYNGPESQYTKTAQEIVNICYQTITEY
From the text: as §1

BRDT(1) = BRDT(1) (Homo sapiens, UniProt Q58F21)
From the text: as §1

SMARCA2 = SMARCA2 (Homo sapiens, UniProt P51531)
From the text: as §1

BAZ2A = biological target: T4, BAZ2A (Homo sapiens, UniProt Q9UIF9)
T4 sequence (Q9UIF9 1793-1897 limits assumed): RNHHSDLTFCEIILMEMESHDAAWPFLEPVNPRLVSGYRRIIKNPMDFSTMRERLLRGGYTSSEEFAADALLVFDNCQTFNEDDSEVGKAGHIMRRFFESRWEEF
From the text: as §1

PCAF = biological target: T5, PCAF (Homo sapiens, UniProt Q92831)
T5 sequence (Q92831 723-827 limits assumed): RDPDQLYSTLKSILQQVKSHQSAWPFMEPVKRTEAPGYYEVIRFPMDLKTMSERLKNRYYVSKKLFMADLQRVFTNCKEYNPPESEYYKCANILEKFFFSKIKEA
From the text: as §1

BRD8(1) = BRD8(1) (Homo sapiens, UniProt Q9H0E9)
From the text: as §1

BRD3(1,2) = BRD3(1,2) (Homo sapiens, UniProt Q15059)
From the text: as §1

PBRM1(2) = PBRM1(2) (Homo sapiens, UniProt Q86U86)
From the text: as §1

BRPF1 = biological target: T6, BRPF1 (Homo sapiens, UniProt P55201)
T6 sequence (P55201 628-732 limits assumed): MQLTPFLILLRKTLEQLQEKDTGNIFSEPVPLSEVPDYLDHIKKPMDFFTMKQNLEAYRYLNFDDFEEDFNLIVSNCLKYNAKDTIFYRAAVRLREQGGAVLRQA
From the text: as §1

BRD4(1) = BRD4(1) (Homo sapiens, UniProt O60885)
From the text: as §1

TRIM33(PHD,BRD) = biological target: T7, TRIM33(PHD,BRD) (Homo sapiens, UniProt Q9UPN9)
T7 sequence (Q9UPN9 882-1087 limits assumed): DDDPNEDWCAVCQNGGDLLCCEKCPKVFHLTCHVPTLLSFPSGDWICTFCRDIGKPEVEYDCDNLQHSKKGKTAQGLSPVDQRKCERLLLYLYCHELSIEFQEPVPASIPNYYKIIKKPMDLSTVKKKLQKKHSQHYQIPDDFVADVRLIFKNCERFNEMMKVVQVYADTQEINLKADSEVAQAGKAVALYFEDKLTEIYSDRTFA
From the text: as §1

BRD2(1) = BRD2(1) (Homo sapiens, UniProt P25440)
From the text: as §1

BRD2(2) = BRD2(2) (Homo sapiens, UniProt P25440)
From the text: as §1

TAF1(2) = biological target: T8, TAF1(2) (Homo sapiens, UniProt P21675)
T8 sequence (P21675 1519-1628 limits assumed): T3 sequence (Q8IZX4 1517-1626 limits assumed) with M46V, V51M, I102V, I107L
From the text: as §1

BRDT(2) = BRDT(2) (Homo sapiens, UniProt Q58F21)
From the text: as §1

BRD4(1,2) = BRD4(1,2) (Homo sapiens, UniProt O60885)
From the text: as §1

BRD8(2) = BRD8(2) (Homo sapiens, UniProt Q9H0E9)
From the text: as §1

BRD7 = biological target: T9, BRD7 (Homo sapiens, UniProt Q9NPI1)
T9 sequence (Q9NPI1 131-235 limits assumed): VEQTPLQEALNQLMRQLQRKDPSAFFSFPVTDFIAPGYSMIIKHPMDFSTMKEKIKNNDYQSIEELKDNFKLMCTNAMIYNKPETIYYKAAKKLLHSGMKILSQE
From the text: as §1

[1] = KD (BROMOscan), sheet prints no unit (nM)
[2] = read-out: KD (BROMOscan), sheet prints no unit (nM)

Chain of BRD8(1) (Q9H0E9 706-811 limits assumed): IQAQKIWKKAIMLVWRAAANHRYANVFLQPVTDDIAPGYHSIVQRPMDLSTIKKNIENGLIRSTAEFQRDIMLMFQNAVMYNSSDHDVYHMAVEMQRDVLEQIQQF
Chain of BRD2(2) (P25440 344-453 limits assumed): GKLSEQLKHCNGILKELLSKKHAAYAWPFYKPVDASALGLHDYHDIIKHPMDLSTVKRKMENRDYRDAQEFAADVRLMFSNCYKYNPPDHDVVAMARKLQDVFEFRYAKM
Chain of PBRM1(2) (Q86U86 177-287 limits assumed): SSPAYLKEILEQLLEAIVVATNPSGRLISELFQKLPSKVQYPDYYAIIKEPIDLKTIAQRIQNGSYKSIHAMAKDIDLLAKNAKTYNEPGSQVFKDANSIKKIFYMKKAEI
Chain of SMARCA2 (P51531 1-1572 isoform P51531-2): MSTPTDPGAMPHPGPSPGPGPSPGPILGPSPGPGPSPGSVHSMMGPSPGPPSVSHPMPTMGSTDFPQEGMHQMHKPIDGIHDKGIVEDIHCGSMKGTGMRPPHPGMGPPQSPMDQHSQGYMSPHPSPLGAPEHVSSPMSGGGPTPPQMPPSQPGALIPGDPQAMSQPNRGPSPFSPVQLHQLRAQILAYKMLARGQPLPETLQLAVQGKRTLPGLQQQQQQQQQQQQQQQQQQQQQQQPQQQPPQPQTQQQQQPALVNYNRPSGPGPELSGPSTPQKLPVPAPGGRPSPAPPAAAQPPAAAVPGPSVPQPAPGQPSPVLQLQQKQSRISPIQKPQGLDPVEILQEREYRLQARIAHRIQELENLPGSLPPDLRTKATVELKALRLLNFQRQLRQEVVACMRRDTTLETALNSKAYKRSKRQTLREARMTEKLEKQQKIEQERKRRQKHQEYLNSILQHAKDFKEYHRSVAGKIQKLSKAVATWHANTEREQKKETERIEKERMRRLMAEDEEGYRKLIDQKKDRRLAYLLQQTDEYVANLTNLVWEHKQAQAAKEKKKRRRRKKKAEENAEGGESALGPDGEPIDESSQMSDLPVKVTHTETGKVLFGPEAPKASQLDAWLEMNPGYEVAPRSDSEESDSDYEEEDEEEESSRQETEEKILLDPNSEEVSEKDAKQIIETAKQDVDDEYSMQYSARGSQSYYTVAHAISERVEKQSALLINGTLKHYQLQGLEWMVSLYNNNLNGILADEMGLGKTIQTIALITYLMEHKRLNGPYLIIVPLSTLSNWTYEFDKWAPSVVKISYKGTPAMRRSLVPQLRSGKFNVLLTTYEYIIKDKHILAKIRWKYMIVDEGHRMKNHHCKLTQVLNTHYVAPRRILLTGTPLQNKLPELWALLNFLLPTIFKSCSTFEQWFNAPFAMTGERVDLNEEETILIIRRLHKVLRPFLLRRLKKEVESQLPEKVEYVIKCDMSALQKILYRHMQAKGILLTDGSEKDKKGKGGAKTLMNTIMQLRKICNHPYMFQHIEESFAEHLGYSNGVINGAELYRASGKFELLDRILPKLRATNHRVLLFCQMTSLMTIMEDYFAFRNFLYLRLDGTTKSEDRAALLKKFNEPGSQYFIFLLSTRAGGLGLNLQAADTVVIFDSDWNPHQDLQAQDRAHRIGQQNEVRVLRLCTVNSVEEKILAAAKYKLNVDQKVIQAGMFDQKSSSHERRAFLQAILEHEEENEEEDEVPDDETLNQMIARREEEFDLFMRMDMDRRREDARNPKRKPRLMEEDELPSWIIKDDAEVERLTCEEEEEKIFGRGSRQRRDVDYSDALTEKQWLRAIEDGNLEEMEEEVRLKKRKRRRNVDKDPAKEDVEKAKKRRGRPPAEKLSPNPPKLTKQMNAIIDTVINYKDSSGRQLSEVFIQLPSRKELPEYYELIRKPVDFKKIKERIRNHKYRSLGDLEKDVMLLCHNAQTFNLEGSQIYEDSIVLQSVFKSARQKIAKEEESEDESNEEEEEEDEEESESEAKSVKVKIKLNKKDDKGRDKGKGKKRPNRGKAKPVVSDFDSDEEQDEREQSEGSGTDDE
Chain of BRD3(1,2) (Q15059 24-416 limits assumed): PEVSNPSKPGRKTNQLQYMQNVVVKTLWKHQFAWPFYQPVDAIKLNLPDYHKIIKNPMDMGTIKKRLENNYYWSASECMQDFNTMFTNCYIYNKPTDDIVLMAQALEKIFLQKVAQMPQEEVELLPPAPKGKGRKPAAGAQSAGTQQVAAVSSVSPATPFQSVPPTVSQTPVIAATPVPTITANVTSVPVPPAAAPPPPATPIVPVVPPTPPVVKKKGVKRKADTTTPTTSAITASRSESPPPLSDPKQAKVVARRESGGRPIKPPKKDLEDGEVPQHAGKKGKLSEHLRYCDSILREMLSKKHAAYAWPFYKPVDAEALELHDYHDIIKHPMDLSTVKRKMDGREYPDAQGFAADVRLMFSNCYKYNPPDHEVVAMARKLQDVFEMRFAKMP
Chain of BRD2(1) (P25440 74-180 limits assumed): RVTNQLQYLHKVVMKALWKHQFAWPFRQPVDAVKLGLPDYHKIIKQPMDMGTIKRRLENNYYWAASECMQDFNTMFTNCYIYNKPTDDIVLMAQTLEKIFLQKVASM
Chain of BRD8(2) (Q9H0E9 1099-1207 limits assumed): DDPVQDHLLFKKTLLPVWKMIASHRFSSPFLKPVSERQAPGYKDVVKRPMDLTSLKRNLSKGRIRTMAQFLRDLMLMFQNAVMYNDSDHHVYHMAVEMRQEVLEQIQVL
Chain of SMARCA4 (P51532 1453-1564 limits assumed): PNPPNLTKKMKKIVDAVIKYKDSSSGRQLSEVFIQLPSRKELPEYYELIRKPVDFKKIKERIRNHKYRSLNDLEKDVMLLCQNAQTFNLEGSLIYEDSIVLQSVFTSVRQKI

SMILES: COc1ccc(CCc2nc3cc(-c4c(C)noc4C)ccc3n2C[C@H](C)N2CCOCC2)cc1Cl [SGC-CBP30]
Kd (BRD4(2)): 6.2 µM
Kd (BAZ2B; [1]): > 30000 nM
Kd (BAZ2B; KD, BROMOscan, BAZ2B): > 100000 nM
Kd (TRIM24(PHD,BRD); KD, BROMOscan, TRIM24(PHD,Bromo.)): 6500 nM
Kd (TAF1L(2)): 7.1 µM
Kd (BRDT(1); KD, BROMOscan, BRDT(1)): 2600 nM
Kd (SMARCA2; [1]): > 30000 nM
Kd (SMARCA2; KD, BROMOscan, SMARCA2): > 100000 nM
Kd (BAZ2A): 69 µM
Kd (PCAF; [1]): > 30000 nM
Kd (PCAF; KD, BROMOscan, PCAF): > 100000 nM
Kd (BRD7; KD, BROMOscan, BRD7): 39000 nM
Kd (BRD8(1); [1]): > 30000 nM
Kd (BRD8(1); KD, BROMOscan, BRD8(1)): > 100000 nM
Kd (BRD3(1,2); KD, BROMOscan, BRD3(1,2)): 1100 nM
Kd (PBRM1(2); [1]): > 30000 nM
Kd (PBRM1(2); KD, BROMOscan, PBRM1(2)): > 100000 nM
Kd (BRPF1; KD, BROMOscan, BRPF1): 2400 nM
Kd (BRD4(1)): 1.1 µM
Kd (TRIM33(PHD,BRD); [1]): > 30000 nM
Kd (TRIM33(PHD,BRD); KD, BROMOscan, TRIM33(PHD,Bromo.)): > 100000 nM
Kd (BRD2(1)): 0.62 µM
Kd (BRD2(2)): 2.4 µM
Kd (TAF1(2)): 3.1 µM
Kd (BRDT(2); [1]): > 30000 nM
Kd (BRDT(2); KD, BROMOscan, BRDT(2)): > 100000 nM
Kd (BRD4(1,2)): 3.4 µM
Kd (BRD8(2); [1]): > 30000 nM
Kd (BRD8(2); KD, BROMOscan, BRD8(2)): > 100000 nM

SMILES: CCCS(=O)(=O)c1nc(NC2CC2)cc(-c2ccc3c(ccn3C3CC(C)(C)NC(C)(C)C3)c2)n1 [NVS-CECR2-1]
Kd (BRD4(2)): 5.7 µM
Kd (BAZ2B): > 30000 nM
Kd (TRIM24(PHD,BRD)): > 30000 nM
Kd (TAF1L(2)): 9.6 µM
Kd (BRDT(1)): > 30000 nM
Kd (SMARCA2): > 30000 nM
Kd (BAZ2A): > 30 µM
Kd (PCAF): > 30000 nM
Kd (BRD7): 6800 nM
Kd (BRD8(1)): > 30000 nM
Kd (BRD3(1,2)): > 30000 nM
Kd (PBRM1(2)): > 30000 nM
Kd (BRPF1): 3500 nM
Kd (BRD4(1)): 21 µM
Kd (TRIM33(PHD,BRD)): > 30000 nM
Kd (BRD2(1)): > 30 µM
Kd (BRD2(2)): > 30 µM
Kd (TAF1(2)): 2.1 µM
Kd (BRDT(2)): > 30000 nM
Kd (BRD4(1,2)): 12 µM
Kd (BRD8(2)): > 30000 nM

SMILES: Cc1noc(C)c1-c1ccc2c(c1)nc(CCc1ccccc1)n2CCN1CCOCC1 [CBP30-298]
Kd (BRD4(2); BROMOscan Gene Symbol BRD4(2)): 2.7 µM
Kd (BAZ2B; BROMOscan Gene Symbol BAZ2B): > 50000 nM
Kd (BAZ2B; [2]): > 30000 nM
Kd (TRIM24(PHD,BRD); BROMOscan Gene Symbol TRIM24(PHD,Bromo.)): 17000 nM
Kd (TAF1L(2); BROMOscan Gene Symbol TAF1L(2)): 17 µM
Kd (BRDT(1); BROMOscan Gene Symbol BRDT(1)): 1800 nM
Kd (BAZ2A; BROMOscan Gene Symbol BAZ2A): 55 µM
Kd (PBRM1(2); BROMOscan Gene Symbol PBRM1(2)): 42000 nM
Kd (BRPF1; BROMOscan Gene Symbol BRPF1): 18000 nM
Kd (BRD4(1); BROMOscan Gene Symbol BRD4(1)): 0.52 µM
Kd (TRIM33(PHD,BRD); BROMOscan Gene Symbol TRIM33(PHD,Bromo.)): > 50000 nM
Kd (TRIM33(PHD,BRD); [2]): > 30000 nM
Kd (BRD2(1); BROMOscan Gene Symbol BRD2(1)): 0.78 µM
Kd (BRD2(2); BROMOscan Gene Symbol BRD2(2)): 1.8 µM
Kd (TAF1(2); BROMOscan Gene Symbol TAF1(2)): 5.8 µM
Kd (BRDT(2); BROMOscan Gene Symbol BRDT(2)): 6800 nM

Next, values leading:

Kd (SMARCA4): 41 µM
Kd (BRD4(2); BRD4(2)): > 50 µM
Kd (BAZ2B; BAZ2B): 9400 nM
Kd (TRIM24(PHD,BRD); TRIM24(PHD,Bromo.)): 5600 nM
Kd (TAF1L(2); TAF1L(2)): 5.5 µM
Kd (BRDT(1); BRDT(1)): 4800 nM
Kd (SMARCA2; SMARCA2): > 50000 nM
Kd (BAZ2A; BAZ2A): > 50 µM
Kd (PCAF; PCAF): 4200 nM
Kd (BRD8(1); BRD8(1)): > 50000 nM
Kd (BRD3(1,2); BRD3(1,2)): 12000 nM
Kd (PBRM1(2); PBRM1(2)): > 50000 nM
Kd (BRPF1; BRPF1): 4 nM
Kd (BRD4(1); BRD4(1)): 3.3 µM
Kd (TRIM33(PHD,BRD); TRIM33(PHD,Bromo.)): > 50000 nM
Kd (BRD2(1); BRD2(1)): 5.9 µM
Kd (BRD2(2); BRD2(2)): > 50 µM
Kd (TAF1(2); TAF1(2)): 4.9 µM
Kd (BRDT(2); BRDT(2)): > 50000 nM
Kd (BRD4(1,2); BRD4(1,2)): 15 µM
Kd (BRD8(2); BRD8(2)): > 50000 nM
SMILES: COc1cc(C#N)ccc1S(=O)(=O)Nc1ccc2c(c1)cc(C)c(=O)n2C [NI 57]

Kd (BAZ2B; [1]): > 30000 nM
Kd (BAZ2B; KD, BAZ2B): > 100000 nM
Kd (TRIM24(PHD,BRD); [1]): > 30000 nM
Kd (TRIM24(PHD,BRD); KD, TRIM24(PHD,Bromo.)): > 100000 nM
Kd (BRDT(1); [1]): > 30000 nM
Kd (BRDT(1); KD, BRDT(1)): > 100000 nM
Kd (BAZ2A): > 100 µM
Kd (PCAF; [1]): > 30000 nM
Kd (PCAF; KD, PCAF): > 100000 nM
Kd (BRD7; [1]): > 30000 nM
Kd (BRD7; KD, BRD7): > 100000 nM
Kd (BRD8(1); [1]): > 30000 nM
Kd (BRD8(1); KD, BRD8(1)): > 100000 nM
Kd (BRD3(1,2); [1]): > 30000 nM
Kd (BRD3(1,2); KD, BRD3(1,2)): > 100000 nM
Kd (BRPF1; [1]): > 30000 nM
Kd (BRPF1; KD, BRPF1): > 100000 nM
Kd (TRIM33(PHD,BRD); [1]): > 30000 nM
Kd (TRIM33(PHD,BRD); KD, TRIM33(PHD,Bromo.)): > 100000 nM
Kd (BRDT(2); [1]): > 30000 nM
Kd (BRDT(2); KD, BRDT(2)): > 100000 nM
Kd (BRD8(2); [1]): > 30000 nM
Kd (BRD8(2); KD, BRD8(2)): > 100000 nM
SMILES: O=C(C=CN1CC2CC1CN2c1ccccn1)c1ccccc1O (centres unmarked) [PFI-3]
